Data reported in US9029553B2, “2-anilino nicotinyl linked 2-amino benzothiazole conjugates and process for the preparation thereof” (Council of Scientific & Industrial Research, priority 2011, dated 2015).

What was measured:
[1] = test system: 502713; assay: SRB percentage growth inhibition (NCI protocol); type: cell-based; details: Homo sapiens, 48 hrs exposure
Description: (§1) 2-Anilino nicotinyl linked 2-amino benzothiazoles conjugates of formula 4-8 have been tested against ten and eleven human cancer cell lines for 10 and 1 μM respectively derived from nine cancer types (leukemia, non-small cell lung cancer, colon cancer, CNS cancer, melanoma, ovarian cancer, renal cancer, prostate cancer and breast cancer) as per NCI protocol. For each compound, percentage of growth inhibition was calculated for individual cell lines at a minimum of two concentrations (1 and 10 μM). A protocol of 48 hrs continuous drug exposure was used, and a sulforhodamine B (SRB) protein assay was used to estimate cell viability or growth. The percentage of growth inhibition compared with the control was calculated in table 1 and table 2.

[2] = test system: IGR-OV-1; assay: SRB percentage growth inhibition (NCI protocol); type: cell-based; details: Homo sapiens, IGROV-1, 48 hrs exposure
Description: as §1

[3] = test system: Sw-620; assay: SRB percentage growth inhibition (NCI protocol); type: cell-based; details: Homo sapiens, 48 hrs exposure
Description: as §1

[4] = test system: PC-3; assay: SRB percentage growth inhibition (NCI protocol); type: cell-based; details: Homo sapiens, 48 hrs exposure
Description: as §1

[5] = test system: IMR-32; assay: SRB percentage growth inhibition (NCI protocol); type: cell-based; details: Homo sapiens, 48 hrs exposure
Description: as §1

[6] = test system: HEP-2; assay: SRB percentage growth inhibition (NCI protocol); type: cell-based; details: Homo sapiens, 48 hrs exposure
Description: as §1

[7] = test system: A549; assay: SRB percentage growth inhibition (NCI protocol); type: cell-based; details: Homo sapiens, 48 hrs exposure
Description: as §1

[8] = test system: DU145; assay: SRB percentage growth inhibition (NCI protocol); type: cell-based; details: Homo sapiens, DU-145, 48 hrs exposure
Description: as §1

[9] = test system: SK-NS-H; assay: SRB percentage growth inhibition (NCI protocol); type: cell-based; details: Homo sapiens, SK-N-SH, 48 hrs exposure
Description: as §1

[10] = test system: OVCAR-5; assay: SRB percentage growth inhibition (NCI protocol); type: cell-based; details: Homo sapiens, 48 hrs exposure
Description: as §1

[11] = test system: MCF-7; assay: SRB percentage growth inhibition (NCI protocol); type: cell-based; details: Homo sapiens, MCF7, 48 hrs exposure
Description: as §1

[12] = test system: HCT-15; assay: SRB percentage growth inhibition (NCI protocol); type: cell-based; details: Homo sapiens, 10 μM, 48 hrs exposure
Description: as §1

[13] = test system: SiHa; assay: SRB percentage growth inhibition (NCI protocol); type: cell-based; details: Homo sapiens, 48 hrs exposure
Description: as §1

[14] = test system: normal monkey kidney CV-1 cells; assay: MTT cytotoxicity in normal cells; type: cell-based; details: Primates
Description: These compounds were also evaluated for their cytotoxic potential in normal cells and for these purpose their IC50 value were also determine in normal monkey kidney CV-1 cells by using MTT method. The ratios of normal to cancer cells IC50 value were ranges from 10-1000 times (Table 5).

[15] = test system: HL-60 cells; assay: Annexin V-FITC flow cytometric analysis of apoptosis and necrosis; type: cell-based, human; details: 1 μM, 24 h
Description: During apoptosis an important biochemical change that take place in cells undergoing is flipping of phosphatidyl serine lipid from the inner leaflet of the cellular membrane to the outer one.
Annexin V a calcium dependent phospholipids binding protein has a high affinity for PS. […] Compounds 4-8 at 1 μM were treated with HL-60 cells were incubated for 24 h and the extent of apoptosis vs. necrosis was analyzed from the quadrant analysis of cell population with Annexin V-FITC. Both the apoptotic and post apoptotic cell populations increased in HL-60 cells.

[16] = test system: Hela; assay: MTT inhibition of cell proliferation; type: cell-based; details: Homo sapiens, 48 h
Source text: (§2) In order to determine the mode of action of cell death in cancer cells, first we explored the cytotoxic potential of different structural analogs of benzothiazoles on different human cancer cell lines. […] These compounds have limited or no cytotoxicity to cervical cancer SiHa, HeLa cells, breast cancer MCF-7 cells and colon cancer HCT-15 cells.

[17] = test system: SiHa; assay: MTT inhibition of cell proliferation; type: cell-based; details: Homo sapiens, 48 h
Source text: as §2

[18] = test system: PARP; assay: Western blot of cell death targets; type: cell-based, human; details: 1 μM, 24 h, HL-60
Description: Apoptosis was further characterized by the western blot analysis. Cells were treated with tested compounds at 1 μM for 24 h and expression of key apoptotic proteins like NF-kB, survivin; PARP, Bcl-2 and HSP-90 were analyzed through western blot. Both NF-kB and survivin are highly expressed in HL-60 cells. NF-kB is a transcriptional factor regulating the expression of several genes in the cells whereas survivin is a cell cycle regulated inhibitor of apoptosis protein (IAP), mostly over expressed in most of the tumors.
During apoptotic stimuli activated caspase-3 appears to cause DNA fragmentation through activation of caspase activated DNAse (CAD) in the nucleus of the cells. […] Cancer cells have very high level of heat shock proteins. These are molecular chaperones expressed constitutively under normal conditions to maintain protein homeostasis and are induced upon environmental stress.

[19] = test system: HL-60 cells; assay: Flow cytometric analysis of reactive oxygen species (DCFH-DA); type: cell-based, human; details: 1 μM, 24 hr, HL-60
Description: It was clear that these compounds were cytotoxic and induce apoptosis in HL-60 cells, now we have to found out the early events which were responsible for the induction of apoptosis like reactive oxygen species (ROS) or nitric oxide (NO) generation. Intracellular peroxide (ROS) in the cells was measured by DCFH-DA by using flow cytometry. Cells were incubated with tested compounds at 1 μM for 24 h in HL-60 cells and analyzed by flow cytometry after double staining with DCFH-DA (FIG. 7). Cells were analyzed for fluorescence intensity in FL1 vs. cell count. There was hardly any DCF fluorescence (ROS positive cells) in the untreated HL-60 cells, and this status remained unchanged when cells were incubated for 24 hr with compounds 7 and 8. […] Compounds 4 and 6 also induce the generation of peroxide in HL-60 cells (31 and 16% increase, respectively).

[20] = test system: caspase-3, caspase-8, caspase-9 activity in HL-60 Cells; assay: Caspases induction; type: cell-based, human; details: 1 μM, 24 h
Source text: So activation of caspases by compound 8 indicate that it induce apoptosis through both the intrinsic as well as extrinsic apoptotic pathway in HL-60 cells.

[21] = test system: HL-60 cells; assay: Loss of mitochondrial membrane potential (Rh-123 uptake); type: cell-based, human; details: 1 μM, 48 h
Description: Rhodamine-123 uptake into mitochondria is driven by mitochondrial Transmembrane potential (Ψmt) that allows the determination of cell population with active integrated mitochondrial functions. Loss of Ψmt leads to depolarization of mitochondrial membranes leading to collapse of mitochondrial functions ensuing cell death. The loss of Ψmt indicated the loss of mitochondrial integrity to couple electrons to energy production. HL-60 cells exposed to tested compounds for 48 h at 1 μM were analyzed for Rh-123 uptake by flow cytometry. The percentage of cells with low Rh-123 quantum fluorescence indicative of loss of Ψmt was calculated among the total acquired cell events (10,000). In the untreated control cells, more than 90% cells were functionally active with high Rh-123 signals (FIG. 9).

O=C(Nc1nc2ccc([N+](=O)[O-])cc2s1)c1cccnc1Nc1cc(F)c(F)c(F)c1 [Compound 8, N3-(6-nitro-1,3-benzothiazol-2-yl)-2-[(3,4,5-trifluorophenyl)amino]-3-pyridine carboxamide]
inhibition at 10 µM [1]: 80%
inhibition at 1 µM [2]: 42%
inhibition at 1 µM ([3]; 1 μM): 29%
inhibition at 10 µM ([3]; 10 μM): 70%
inhibition at 1 µM [4]: 41%
inhibition at 1 µM ([5]; 1 μM): 48%
inhibition at 10 µM ([5]; 10 μM): 72%
inhibition at 1 µM ([6]; 1 μM): 49%
inhibition at 10 µM ([6]; 10 μM): 0%
inhibition at 1 µM ([7]; 1 μM): 27%
inhibition at 10 µM ([7]; 10 μM): 27%
inhibition at 1 µM ([8]; 1 μM): 58%
inhibition at 10 µM ([8]; 10 μM): 39%
inhibition at 10 µM [9]: 49%
inhibition at 1 µM ([10]; 1 μM): 37%
inhibition at 10 µM ([10]; 10 μM): 52%
inhibition at 1 µM [11]: 46%
inhibition at 10 µM [12]: 62%
inhibition at 10 µM [13]: 70%
IC50 [14]: > 100 µM
apoptotic cells (Annexin V-FITC) [15]: around 70%
IC50 [16]: > 100 µM
IC50 [17]: 36 µM
PARP cleavage (western blot) [18]: highest potential
DCF fluorescence (ROS positive cells), in words [19]: unchanged
activation of caspases-3,-8,-9 activities [20]: 2-3 folds
loss of mitochondrial membrane potential [21]: 45%
